Data taken from patent US9649295B2, “Chemical inhibitors of soluble adenylyl cyclase (sAC)” (Cornell Research Foundation, Inc., priority 2004, dated 2017).

Key:
INS-1E cells [1] = assay: insulin release in INS-1E cells; assay type: cell-based; conditions: for effect on PMA induced insulin release: PMA 300 nM, 2.5 mM glucose, KH7 30 μM
Protocol: (§1) Briefly, cells (passage 140-150) were plated at 2.5×10^5 cells/well in a 24 well plate and permitted to recover for two days. Cells were glucose starved by incubation for 1 hour in the presence of 2.5 mM glucose KRB medium supplemented with 2 mM sodium bicarbonate, 10 mM Hepes, and 0.1% BSA. After washing, cells were incubated in KRB with either 2.5 mM or 16 mM glucose in the presence of either vehicle control (DMSO or MeOH) or indicated drug. After the indicated time, removed media was cleared of cell debris and secreted insulin was measured by Insulin ELISA kit (Linco Research, St. Charles, Mo., or ALPCO, Windham, N.H.). If cAMP was to be concomitantly measured, cells were pre-treated with IBMX for the final 10 minutes of the glucose starvation and IBMX was included in all subsequent incubations. For the washout experiment, subsequent to initial insulin determination, cells treated with KH7 were placed in fresh KRB (2.5 mM glucose) for an additional hour and insulin release was measured as above in the absence of any added drug. For transferrin recycling, loading of cells with I^125 transferrin was performed during hour incubation in 2.5 mM glucose KRB.

[2] = toxicity observation and post-mortem analysis in mice; assay type: in vivo, mouse; conditions: single injection
INS-1E cells [3] = assay: transferrin recycling in INS-1E cells; assay type: cell-based; conditions: 30 minutes, KH7 30 μM
Protocol: as §1

primary mouse islets = assay: insulin release from isolated mouse islets; assay type: cell-based; conditions: 16.7 mM glucose, 30 minutes, 30 μM KH7
Protocol: After several washes with Hank's Balanced Salt Solution, islets were hand-picked and 15-20 islets were distributed into each well of a 12 well plate to adhere overnight in RPMI-1640 media supplemented with 10 mM HEPES, 5.6 mM glucose, 10% FBS, 2 mM L-glutamine, 1 mM sodium pyruvate, and antibiotics.
Insulin release from isolated islets was performed in 12 well plates. Islets were preincubated in KRB (2.8 mM glucose) for 1 hour followed by incubation for 30 minutes in 2.8 mM glucose KRB in the presence of drug. The same wells were then incubated for an additional 30 minutes in 16.7 mM glucose KRB in the presence of the same drugs. Media was removed, cleared of cells, and insulin was measured.

[4] = molecular target: T1, purified solubilized version of Type VII tmAC (sol.AC7) (Homo sapiens, UniProt P51828); assay: in vitro cyclase activity of purified solubilized Type VII tmAC; assay type: biochemical; conditions: read-out: in vitro IC50 pure sol.AC7
T1 construct: a mixture of purified catalytic domains, C1 and C2, from Type VII tmAC; made in house
T1 sequence (P51828 279-406 limits assumed): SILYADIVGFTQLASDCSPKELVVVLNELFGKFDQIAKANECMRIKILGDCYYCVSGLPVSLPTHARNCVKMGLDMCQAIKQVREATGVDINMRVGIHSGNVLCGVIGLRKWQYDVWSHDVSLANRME
T1 sequence (P51828 879-1023 limits assumed): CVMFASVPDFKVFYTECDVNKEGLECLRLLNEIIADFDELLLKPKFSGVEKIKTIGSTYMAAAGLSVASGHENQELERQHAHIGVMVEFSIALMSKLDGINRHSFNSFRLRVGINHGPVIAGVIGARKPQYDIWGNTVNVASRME

CC(Sc1nc2ccccc2[nH]1)C(=O)N/N=C/c1cc(Br)ccc1O (stereo not drawn) [KH7]
rescue of KH7 inhibition of GSIS by cAMP analog (INS-1E cells [1]; 50 μM KH7, 1 mM 8-Br-SpcAMP): rescued by addition of a membrane-permeable cAMP analog | effect on glucose-stimulated insulin secretion (GSIS) (INS-1E cells [1]; 16 mM glucose, 30 μM KH7, 30 μM KH7.15, 50 μM 2-hydroxyestradiol, 50 μM 2′5′ddAdo): blocked all insulin release induced by high glucose | cellular toxicity (INS-1E cells [1]; INS-1E cells): not due to cellular toxicity | IC50 (INS-1E cells [1]; INS-1E, 0.5 h, 16 mM glucose, 30 minutes, read-out: IC50 for inhibition of glucose-stimulated insulin secretion (GSIS)): ~5 µM | effect on PMA induced insulin release (INS-1E cells [1]; 30 minutes): unaffected | effect on PMA induced insulin release (INS-1E cells [1]; 30 minutes, listed as K17): does not affect | insulin release over time after addition of high glucose (INS-1E cells [1]; in the presence of KH7): no significant insulin release was observed up to 45 minutes | GSIS after drug washout (INS-1E cells [1]; sixty minutes following removal of drug): normal GSIS was restored | behavior or stressful responses to injection [2]: did not elicit any behavior or stressful responses inconsistent with a simple saline injection | toxicity to mice [2]: did not appear to be toxic | anatomical, histological, and blood post-mortem analysis ([2]; within 48 hours after drug treatment): no significant toxicology or histological pathology | effect on transferrin recycling (INS-1E cells [3]): unaffected | effect on transferrin recycling (INS-1E cells [3]; listed as K17): does not affect | effect on insulin release induced by high glucose in islets (primary mouse islets): inhibited insulin release induced by high glucose | IC50 [4]: > 55 µM
